In US9085555B2, “Complement pathway modulators and uses thereof” (priority 2011, dated 2015):

Biological target: Factor D (Homo sapiens (Human), UniProt P00746)
Assay: biochemical
Format: biochemical
Settings: read-out: IC50

Chain of Factor D (P00746 26-253): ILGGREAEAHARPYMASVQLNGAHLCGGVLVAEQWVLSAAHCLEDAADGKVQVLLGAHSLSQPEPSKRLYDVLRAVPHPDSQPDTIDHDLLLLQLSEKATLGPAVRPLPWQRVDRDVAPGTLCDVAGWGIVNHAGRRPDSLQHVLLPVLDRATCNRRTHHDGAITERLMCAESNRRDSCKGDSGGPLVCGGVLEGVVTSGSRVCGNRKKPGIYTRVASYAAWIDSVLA

CC(=O)c1cn(CC(=O)N2C[C@H](F)C[C@H]2C(=O)NCc2cccc(Br)c2F)c2ccccc12 [Example 516, (2S,4R)-1-[2-(3-Acetyl-indol-1-yl)-acetyl]-4-fluoro-pyrrolidine-2-carboxylic acid 3-bromo-2-fluoro-benzyl amide]
IC50: 8 nM

NC(=O)c1cn(CC(=O)N2C[C@H](F)C[C@H]2C(=O)Nc2cccc(C(F)(F)F)c2F)c2ccccc12 [Example 517, 1-{2-[(2S,4R)-4-Fluoro-2-(2-fluoro-3-trifluoromethyl-phenylcarbamoyl)-pyrrolidin-1-yl]-2-oxo-ethyl}-1H-indole-3-carboxylic acid amide]
IC50: 1460 nM

CC(=O)c1cn(CC(=O)N2C[C@H](F)C[C@H]2C(=O)N[C@H](CO)c2cccc(Cl)c2F)c2ccccc12 [Example 518, (2S,4R)-1-[2-(3-Acetyl-indol-1-yl)-acetyl]-4-fluoro-pyrrolidine-2-carboxylic acid [(S)-1-(3-chloro-2-fluoro-phenyl)-2-hydroxy-ethyl]-amide]
IC50: 41 nM

CNC(=O)c1cn(CC(=O)N2C[C@H](F)C[C@H]2C(=O)NCc2cccc(Cl)c2F)c2ccccc12 [Example 519, 1-{2-[(2S,4R)-2-(3-Chloro-2-fluoro-benzylcarbamoyl)-4-fluoro-pyrrolidin-1-yl]-2-oxo-ethyl}-1H-indole-3-carboxylic acid methylamide]
IC50: 722 nM

CO[C@H]1[C@@H](C(=O)NCc2cccc(Cl)c2F)N(C(=O)Cn2cc(C(C)=O)c3cccnc32)C[C@@H]1F [Example 520, (2S,3S,4S)-1-[2-(3-Acetyl-pyrrolo[2,3-b]pyridin-1-yl)-acetyl]-4-fluoro-3-methoxy-pyrrolidine-2-carboxylic acid 3-chloro-2-fluoro-benzylamide]
IC50: 22 nM

CC(=O)c1cn(CC(=O)N2C[C@H](F)C[C@H]2C(=O)NCc2cc(-c3nnn[nH]3)cc(Cl)c2F)c2ccccc12 [Example 521, (2S,4R)-1-[2-(3-Acetyl-indol-1-yl)-acetyl]-4-fluoro-pyrrolidine-2-carboxylic acid 3-chloro-2-fluoro-5-(1H-tetrazol-5-yl)-benzylamide]
IC50: 37 nM

CC(=O)c1cn(CC(=O)N2[C@@H]3C[C@@H]3C[C@H]2C(=O)N[C@H](CN(C)C)c2cccc(Cl)c2F)c2ccccc12 [Example 522, (1R,3S,5R)-2-[2-(3-Acetyl-indol-1-yl)-acetyl]-2-aza-bicyclo[3.1.0]hexane-3-carboxylic acid [(S)-1-(3-chloro-2-fluoro-phenyl)-2-dimethylamino-ethyl]-amide]
IC50: 415 nM

CC(=O)c1cn(CC(=O)N2[C@@H]3C[C@@H]3C[C@H]2C(=O)NCc2cccc(Cl)c2F)c2ccncc12 [Example 524, (1R,3S,5R)-2-[2-(3-Acetyl-pyrrolo[3,2-c]pyridin-1-yl)-acetyl]-2-aza-bicyclo[3.1.0]hexane-3-carboxylic acid 3-chloro-2-fluoro-benzylamide]
IC50: 64 nM

CC(=O)c1cn(CC(=O)N2[C@@H]3C[C@@H]3C[C@H]2C(=O)NCc2cc(-c3nnn[nH]3)cc(Cl)c2F)c2ccccc12 [Example 525, (1R,3S,5R)-2-[2-(3-Acetyl-indol-1-yl)-acetyl]-2-aza-bicyclo[3.1.0]hexane-3-carboxylic acid 3-chloro-2-fluoro-5-(1H-tetrazol-5-yl)-benzylamide]
IC50: 36 nM

COC(=O)c1ccc2c(C(C)=O)cn(CC(=O)N3[C@@H]4C[C@@H]4C[C@H]3C(=O)NCc3cccc(Cl)c3F)c2c1 [Example 526, 3-Acetyl-1-{2-[(1R,3S,5R)-3-(3-chloro-2-fluoro-benzylcarbamoyl)-2-aza-bicyclo[3.1.0]hex-2-yl]-2-oxo-ethyl}-1H-indole-6-carboxylic acid methyl ester]
IC50: 54 nM

CC(=O)c1cn(CC(=O)N2[C@@H]3C[C@@H]3C[C@H]2C(=O)NCc2cc(C#N)cc(Cl)c2F)c2ccccc12 [Example 527, (1R,3S,5R)-2-[2-(3-Acetyl-indol-1-yl)-acetyl]-2-aza-bicyclo[3.1.0]hexane-3-carboxylic acid 3-chloro-5-cyano-2-fluoro-benzylamide]
IC50: 483 nM

NC(=O)c1cn(CC(=O)N2C[C@H](F)C[C@H]2C(=O)NCc2cccc(Cl)c2F)c2cc(OC(F)F)ccc12 [Example 528, 1-{2-[(2S,4R)-2-(3-Chloro-2-fluoro-benzylcarbamoyl)-4-fluoro-pyrrolidin-1-yl]-2-oxo-ethyl}-6-difluoromethoxy-1H-indole-3-carboxylic acid amide]
IC50: 75 nM

CC(=O)c1cn(CC(=O)N2C[C@](C)(F)C[C@H]2C(=O)NCc2cccc(Cl)c2F)c2ncccc12 [Example 530, (2S,4R)-1-[2-(3-Acetyl-pyrrolo[2,3-b]pyridin-1-yl)-acetyl]-4-fluoro-4-methyl-pyrrolidine-2-carboxylic acid 3-chloro-2-fluoro-benzylamide]
IC50: 72 nM

CC(=O)c1cn(CC(=O)N2C[C@H](F)C[C@H]2C(=O)NCc2cccc(Cl)c2F)c2cc(Cl)ccc12 [Example 531, (2S,4R)-1-[2-(3-Acetyl-6-chloro-indol-1-yl)-acetyl]-4-fluoro-pyrrolidine-2-carboxylic acid 3-chloro-2-fluoro-benzylamide]
IC50: 11 nM

CC(=O)c1cn(CC(=O)N2[C@@H]3C[C@@H]3C[C@H]2C(=O)NCc2cccc(Cl)c2F)c2nc(C#N)ccc12 [Example 532, (1R,3S,5R)-2-[2-(3-Acetyl-6-cyano-pyrrolo[2,3-b]pyridin-1-yl)-acetyl]-2-aza-bicyclo[3.1.0] hexane-3-carboxylic acid 3-chloro-2-fluoro-benzylamide]
IC50: 223 nM

COC[C@@H](NC(=O)[C@@H]1C[C@H]2C[C@H]2N1C(=O)Cn1cc(C(C)=O)c2cccnc21)c1cccc(Cl)c1F [Example 533, (1R,3S,5R)-2-[2-(3-Acetyl-pyrrolo[2,3-b]pyridin-1-yl)-acetyl]-2-aza-bicyclo[3.1.0] hexane-3-carboxylic acid [(S)-1-(3-chloro-2-fluoro-phenyl)-2-methoxy-ethyl]-amide]
IC50: 34 nM

COC[C@@H](NC(=O)[C@@H]1C[C@H]2C[C@H]2N1C(=O)Cn1cc(C(C)=O)c2ccncc21)c1cccc(Cl)c1F [Example 535, (1R,3S,5R)-2-[2-(3-Acetyl-pyrrolo[2,3-c]pyridin-1-yl)-acetyl]-2-aza-bicyclo[3.1.0] hexane-3-carboxylic acid [(S)-1-(3-chloro-2-fluoro-phenyl)-2-methoxy-ethyl]-amide]
IC50: 62 nM

CC(=O)c1cn(CC(=O)N2[C@@H]3C[C@@H]3C[C@H]2C(=O)NCc2cccc(Cl)c2F)c2cc(OCc3ccccc3)ccc12 [Example 536, (1R,3S,5R)-2-[2-(3-Acetyl-6-benzyloxy-indol-1-yl)-acetyl]-2-aza-bicyclo[3.1.0]hexane-3-carboxylic acid 3-chloro-2-fluoro-benzylamide]
IC50: 121 nM

CC(=O)c1cn(CC(=O)N2C[C@H]3C[C@H]3[C@H]2C(=O)NCc2cccc(Cl)c2F)c2ccncc12 [Example 537, (1R,2S,5S)-3-[2-(3-Acetyl-pyrrolo[3,2-c]pyridin-1-yl)-acetyl]-3-aza-bicyclo[3.1.0] hexane-2-carboxylic acid 3-chloro-2-fluoro-benzylamide]
IC50: 609 nM

CC(=O)c1cn(CC(=O)N2C[C@H]3C[C@H]3[C@H]2C(=O)NCc2cccc(Cl)c2F)c2ncccc12 [Example 538, (1R,2S,5S)-3-[2-(3-Acetyl-pyrrolo[2,3-b]pyridin-1-yl)-acetyl]-3-aza-bicyclo[3.1.0] hexane-2-carboxylic acid 3-chloro-2-fluoro-benzylamide]
IC50: 911 nM

CC(=O)c1cn(CC(=O)N2C[C@H](F)C[C@H]2C(=O)NCc2cccc(Cl)c2F)c2ccc(OC(F)(F)F)cc12 [Example 539, (2S,4R)-1-[2-(3-Acetyl-5-trifluoromethoxy-indol-1-yl)-acetyl]-4-fluoro-pyrrolidine-2-carboxylic acid 3-chloro-2-fluoro-benzylamide]
IC50: 31 nM

COC(=O)c1ccc2c(c1)c(C(C)=O)cn2CC(=O)N1[C@@H]2C[C@@H]2C[C@H]1C(=O)NCc1cccc(Cl)c1F [Example 540, 3-Acetyl-1-{2-[(1R,3S,5R)-3-(3-chloro-2-fluoro-benzylcarbamoyl)-2-aza-bicyclo[3.1.0]hex-2-yl]-2-oxo-ethyl}-1H-indole-5-carboxylic acid methyl ester]
IC50: 236 nM

COC(=O)c1cccc2c(C(C)=O)cn(CC(=O)N3[C@@H]4C[C@@H]4C[C@H]3C(=O)NCc3cccc(Cl)c3F)c12 [Example 541, 3-Acetyl-1-{2-[(1R,3S,5R)-3-(3-chloro-2-fluorobenzylcarbamoyl)-2-aza-bicyclo[3.1.0]hex-2-yl]-2-oxo-ethyl}-1H-indole-7-carboxylic acid methyl ester]
IC50: 91 nM

COC(=O)c1ccc2c(C(C)=O)cn(CC(=O)N3C[C@H](F)C[C@H]3C(=O)NCc3cccc(Cl)c3F)c2c1 [Example 542, 3-Acetyl-1-{2-[(2S,4R)-2-(3-chloro-2-fluoro-benzylcarbamoyl)-4-fluoro-pyrrolidin-1-yl]-2-oxo-ethyl}-1H-indole-6-carboxylic acid methyl ester]
IC50: 19 nM

C[C@@]1(F)C[C@@H](C(=O)NCc2cccc(Cl)c2F)N(C(=O)Cn2cc(C(=O)CO)c3ccccc32)C1 [Example 543, (2S,4R)-4-Fluoro-1-{2-[3-(2-hydroxy-acetyl)-indol-1-yl]-acetyl}-4-methyl-pyrrolidine-2-carboxylic acid 3-chloro-2-fluoro-benzylamide]
IC50: 245 nM

CC(=O)c1cn(CC(=O)N2C[C@@H]3C[C@@H]3[C@H]2C(=O)NCc2cccc(Cl)c2F)c2cnccc12 [Example 544, (1S,2S,5R)-3-[2-(3-Acetyl-pyrrolo[2,3-c]pyridin-1-yl)-acetyl]-3-aza-bicyclo[3.1.0] hexane-2-carboxylic acid 3-chloro-2-fluoro-benzylamide]
IC50: 1110 nM

COC(=O)Cc1ccc2c(C(C)=O)cn(CC(=O)N3[C@@H]4C[C@@H]4C[C@H]3C(=O)NCc3cccc(Cl)c3F)c2c1 [Example 545, (3-Acetyl-1-{2-[(1R,3S,5R)-3-(3-chloro-2-fluoro-benzylcarbamoyl)-2-aza-bicyclo[3.1.0]hex-2-yl]-2-oxo-ethyl}-1H-indol-6-yl)-acetic acid methyl ester]
IC50: 113 nM
